Assays:
EGFR = EGFR (Homo sapiens, UniProt P00533); assay: General kinase assay, selectivity panel: EGFR; assay type: biochemical; details: 10 μM of compound, in comparison to DMSO (0% inhibition)
Method: (§1) The inhibitory effect of compounds according to the present invention on the activity of protein kinases, depicted in Table 1, can be measured according to the following protocol:
(§2) Pipettinq Sequence: • 1) Add 10 μl 4 fold concentrated Substrate+4 fold concentrated ATP in 3 fold concentrated Reaction Buffer to each well of Assay Plate • 2) Add 10 μl 4 fold concentrated inhibitor in 4% DMSO in H2O to each well except to C− and C+ wells • 3) Add 10 μl 4% DMSO in H2O to C− and C+ wells • 4) Add 10 μl 500 mM EDTA in H2O to − wells • 5) Add 10 μl 50 μCi/ml Adenosine 5′-[γ-^33P]triphosphate in H2O to each well • 6) Add 10 μl 4 fold concentrated kinase in Reaction Buffer to each well • 7) Incubate 1 hr at room temperature • 8) Add 10 μl 50 mM EDTA in H2O to each well except to C− wells • 9) Prepare MAPH plates by adding 200 μl 0.75% H3PO4 to each well • 10) Exhaust 0.75% H3PO4 using Millipore vacuum station • 11) Add 60 μl 0.75% H3PO4 to each well of MAPH Filter Plate • 12) Transfer 30 μl sample per well from Assay Plate to corresponding well of MAPH Filter Plate • 13) Incubate 30 min at room temperature • 14) Wash each well of MAPH Filter Plates 3× with 200 μl 0.75% H3PO4 using Millipore vacuum station. • 15) Add 20 μl Scintillation Liquid to each well of MAPH Filter Plate • 16) Seal MAPH Filter Plate • 17) Store MAPH Filter Plate 30 min in darkness • 18) Quantify radioactivity
(§3) The activity of these protein kinases is depicted as % inhibition in the presence of 10 μM of compound in comparison to DMSO (0% inhibition).

c-Src = c-Src (Homo sapiens, UniProt P12931); assay: General kinase assay, selectivity panel: c-Src; assay type: biochemical; details: 10 μM of compound, in comparison to DMSO (0% inhibition)
Method: as §1, §2, §3

PDGFR = assay: General kinase assay, selectivity panel: PDGFR; assay type: biochemical; details: 10 μM of compound, in comparison to DMSO (0% inhibition)
Method: as §1, §2, §3

cMet = cMet (Homo sapiens, UniProt P08581); assay: General kinase assay, selectivity panel: cMet; assay type: biochemical; details: 10 μM of compound, in comparison to DMSO (0% inhibition)
Method: as §1, §2, §3

p56 Lck = p56 Lck (Homo sapiens, UniProt P06239); assay: General kinase assay, selectivity panel: p56 Lck; assay type: biochemical; details: 10 μM of compound, in comparison to DMSO (0% inhibition)
Method: as §1, §2, §3

CDK1 = CDK1 (Homo sapiens, UniProt P06493); assay: General kinase assay, selectivity panel: CDK1; assay type: biochemical; details: 10 μM of compound, in comparison to DMSO (0% inhibition)
Method: as §1, §2, §3

c-Kit = c-Kit (Homo sapiens, UniProt P10721); assay: General kinase assay, selectivity panel: c-Kit; assay type: biochemical; details: 10 μM of compound, in comparison to DMSO (0% inhibition)
Method: as §1, §2, §3

GSK-3β = GSK-3β (Homo sapiens, UniProt P49841); assay: General kinase assay, selectivity panel: GSK-3β; assay type: biochemical; details: 10 μM of compound, in comparison to DMSO (0% inhibition)
Method: as §1, §2, §3

Abl = Abl (Homo sapiens, UniProt P00519); assay: General kinase assay, selectivity panel: Abl; assay type: biochemical; details: 10 μM of compound, in comparison to DMSO (0% inhibition)
Method: as §1, §2, §3

[1] = test system: NFκB-dependent transcriptional activity; assay: NFκB-dependent transcriptional activity (NIH 3T3 75E 11/300D8 cell line); assay type: cell-based; details: for EC50: titration
Source text: NFκB-dependent Transcriptional Activity:
The used NIH 3T3 75E 11/300D8 cell line is described elsewhere (J. Eickhoff et al., Journal of Biological Chemistry, 2004, 279(10), 9642-9652).
It is known, that CDK9 regulates the NFκB-dependent transitional activity. With Compound 4, Compound 7 and Compound 30 studies were done, to evaluate their effect on NFκB-dependent transcriptional activity.

HCMV strain AD169 = assay: HCMV replication assay in HFF cells (EGFP); assay type: cell-based; details: strain AD 169 in HFF cells
Method: Human foreskin fibroblasts (HFF) cell culture were grown in DMEM containing 10% FCS. For HCMV-replication assays, HFF cells were infected with HCMV strain AD169 producing EGFP (HCMV AD169-GFP; 27). 1 h post infection, medium was changed with medium containing the indicated compound concentration (0.3 μM, 1 μM and 3 μM, respectively) After incubation of 7 days cells were lysed (in 25 mM Tris, pH 7.5, 2 mM DTT, 1% Triton X-100 and 10% glycerol) and analysed for EGFP content in a Wallac Victor fluorescence detector.

[2] = test system: CDK9-dependent phosphorylation of RNA-polymerase II; assay: Determination of RNA polymerase II C-terminal domain phosphorylation (western blot, PM1 cells); assay type: cell-based
Method: Determination of RNA Polymerase II C-terminal Domain Phosphorylation: The phosphorylation status of RNA polymerase II C-terminal domain was determined by western blot techniques. PM1 cells were seeded in 6-well plates at a density of 5×10^5 per well. After over night incubation cells were treated with compound as indicated in the respective experiments. Cells were pelleted and lysed with 300 μL 3× Laemmli buffer followed by 30 min denaturing at 65° C. After separation of equal lysate volumes by SDS-PAGE the proteins were transferred to nitrocellulose membranes (Schleicher&Schuell) and probed with anti-[…] (H5), anti-[…] (H14) or RNA Poll II-antibodies purchased from Eurogentec and Santa Cruz, respectively. The amount of reactive protein was visualized by ECL detection methods (Amersham). In order to see, if the compounds according to the general formula (I) do have the intrinsic capacity to penetrate cells and act against cellular target proteins, especially CDK9, the effect of Compound 30 on CDK9-dependent phosphorylation of RNA-polymerase II was investigated.

HBV = HBV replication assay in HepG2-2.2.15 cells; assay type: cell-based
Method: To test anti—HBV-activity of compounds the HBV-producing cell line HepG2-2.2.15 (M. A. Sells, PNAS 1987, 84, 1005-1009) was used. 1.0×10^4 cells were seeded in 96-well microtiter plates in DMEM medium supplemented with 10% FCS. After incubation at 37° C. in 5% CO2 atmosphere for 24 hours the medium was replaced with fresh medium containing the appropriately diluted compound. 3 days later medium was replaced by freshly prepared inhibitor-containing medium and the cells were incubated for further 3 days. Subsequently 200 μl lysis buffer (50 mM Tris-Cl 7.5; 1 mM EDTA 8.0; 0.5% NP40) per well was added. To remove cell debris and […], lysate was centrifuged (15000 rpm, 10 min, 4° C.). Cellular and viral RNA was removed by addition of 2 μl of RNase. 100 μl of the samples were spotted onto an uncharged nylon membrane pre-wetted with PBS (phosphate-buffered saline) using a 96 well-blotting chamber (MINIfold Dot-Blot, Schleicher&Schüll). After further washing with 200 μl PBS per well the membrane was treated twice with 0.5 M NaOH, 1.5 M NaCl (2 min) and 4 times with 0.5 M Tris 7.5, 3 M NaCl (1 min). The nucleic acids were fixed by UV-treatment and used for hybridisabon with a radioactive HBV-fragment prepared from the overgenome-length HBV-plasmid pT-HBV1.3 (L. G. Guidotti et al., Journal of Virology 1995., 69(10), 6158-6169).
The fixed membrane was pre-hybridized in a standard hybridisation buffer (50% formamide, 5×SSPE, 10×Denhards, 1% SDS, 100 μg/ml salmon sperm DNA) for at least 3 hours at 42° C. and hybridised overnight against the labelled HBV-fragment. The preparation of the HBV-fragment with the “Random primers DNA labelling system” (Invitrogen) was done according to the manufacturer's instructions. Hybridized filter were washed at room temperature with 2×SSC, at 62° C. with 2×SSC, 0.5% SDS and at 62° C. with 0.5×SSC, 0.5% SDS. Each washing step was carried out twice. The intensity of the HBV-DNA was quantified using a phosphoimager (Fuji). […] Absorbance was monitored at 570 nm and 600 nm wavelength.

RSK1 = RSK1 (Homo sapiens, UniProt Q15418); assay: General kinase assay, selectivity panel: RSK1; assay type: biochemical; details: 10 μM of compound, in comparison to DMSO (0% inhibition)
Method: as §1, §2, §3

Sequence of c-Src (P12931 whole entry, species assumed): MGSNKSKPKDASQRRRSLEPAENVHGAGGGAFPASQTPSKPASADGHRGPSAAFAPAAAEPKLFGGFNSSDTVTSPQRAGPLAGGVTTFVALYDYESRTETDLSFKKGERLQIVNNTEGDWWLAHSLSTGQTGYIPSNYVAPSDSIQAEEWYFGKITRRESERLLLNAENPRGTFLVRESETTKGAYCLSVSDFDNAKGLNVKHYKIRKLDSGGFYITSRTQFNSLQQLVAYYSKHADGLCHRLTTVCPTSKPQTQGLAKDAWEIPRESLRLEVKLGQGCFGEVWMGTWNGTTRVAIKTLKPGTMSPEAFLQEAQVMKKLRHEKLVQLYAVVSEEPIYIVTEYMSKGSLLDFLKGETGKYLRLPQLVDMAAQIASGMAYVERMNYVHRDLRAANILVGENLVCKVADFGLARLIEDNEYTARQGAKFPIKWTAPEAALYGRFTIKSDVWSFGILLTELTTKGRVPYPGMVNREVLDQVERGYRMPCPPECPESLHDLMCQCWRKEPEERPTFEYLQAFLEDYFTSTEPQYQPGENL
Sequence of Abl (P00519 whole entry, species assumed): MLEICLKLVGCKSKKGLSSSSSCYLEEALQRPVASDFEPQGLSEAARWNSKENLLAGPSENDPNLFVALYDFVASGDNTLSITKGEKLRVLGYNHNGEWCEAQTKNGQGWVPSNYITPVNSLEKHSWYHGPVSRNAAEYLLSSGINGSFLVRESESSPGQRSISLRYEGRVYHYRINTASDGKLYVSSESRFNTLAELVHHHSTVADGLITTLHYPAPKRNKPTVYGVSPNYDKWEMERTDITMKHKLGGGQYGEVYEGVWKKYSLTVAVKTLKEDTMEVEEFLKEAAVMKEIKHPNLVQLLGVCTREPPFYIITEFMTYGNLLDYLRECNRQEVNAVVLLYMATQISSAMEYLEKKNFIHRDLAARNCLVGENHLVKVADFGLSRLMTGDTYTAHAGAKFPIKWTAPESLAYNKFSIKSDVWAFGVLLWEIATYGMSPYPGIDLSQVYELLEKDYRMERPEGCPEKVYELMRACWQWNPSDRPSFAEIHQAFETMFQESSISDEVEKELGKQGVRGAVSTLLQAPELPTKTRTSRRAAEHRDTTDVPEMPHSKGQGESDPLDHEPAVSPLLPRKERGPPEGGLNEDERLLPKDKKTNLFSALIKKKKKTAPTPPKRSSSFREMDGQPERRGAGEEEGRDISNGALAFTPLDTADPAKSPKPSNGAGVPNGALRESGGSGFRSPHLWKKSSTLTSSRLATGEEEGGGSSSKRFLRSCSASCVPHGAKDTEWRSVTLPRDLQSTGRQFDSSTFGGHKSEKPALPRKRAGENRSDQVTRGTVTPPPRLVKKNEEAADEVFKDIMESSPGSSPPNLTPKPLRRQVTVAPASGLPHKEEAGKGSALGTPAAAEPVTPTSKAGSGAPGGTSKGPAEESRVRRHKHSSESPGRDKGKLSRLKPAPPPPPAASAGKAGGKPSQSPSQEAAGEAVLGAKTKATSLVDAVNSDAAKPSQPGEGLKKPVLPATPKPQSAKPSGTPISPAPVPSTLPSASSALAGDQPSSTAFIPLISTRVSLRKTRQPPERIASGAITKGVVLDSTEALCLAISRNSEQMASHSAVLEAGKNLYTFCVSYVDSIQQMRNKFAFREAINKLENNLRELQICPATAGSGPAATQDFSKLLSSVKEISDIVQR
Sequence of p56 Lck (P06239 whole entry): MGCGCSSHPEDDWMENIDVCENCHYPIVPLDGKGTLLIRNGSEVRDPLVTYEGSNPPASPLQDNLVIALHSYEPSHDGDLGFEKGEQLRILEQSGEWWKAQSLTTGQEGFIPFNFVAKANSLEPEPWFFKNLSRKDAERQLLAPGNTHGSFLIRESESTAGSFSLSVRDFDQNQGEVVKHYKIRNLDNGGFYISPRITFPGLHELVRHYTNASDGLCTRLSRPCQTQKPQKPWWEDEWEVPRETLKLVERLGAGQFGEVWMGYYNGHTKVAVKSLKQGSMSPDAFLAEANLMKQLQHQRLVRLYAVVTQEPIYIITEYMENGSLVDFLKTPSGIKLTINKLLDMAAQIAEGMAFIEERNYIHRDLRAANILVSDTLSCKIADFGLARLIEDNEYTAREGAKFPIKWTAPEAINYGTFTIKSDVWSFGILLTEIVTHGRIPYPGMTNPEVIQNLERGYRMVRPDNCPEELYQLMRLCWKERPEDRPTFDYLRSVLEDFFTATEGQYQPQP
Sequence of GSK-3β (P49841 whole entry, species assumed): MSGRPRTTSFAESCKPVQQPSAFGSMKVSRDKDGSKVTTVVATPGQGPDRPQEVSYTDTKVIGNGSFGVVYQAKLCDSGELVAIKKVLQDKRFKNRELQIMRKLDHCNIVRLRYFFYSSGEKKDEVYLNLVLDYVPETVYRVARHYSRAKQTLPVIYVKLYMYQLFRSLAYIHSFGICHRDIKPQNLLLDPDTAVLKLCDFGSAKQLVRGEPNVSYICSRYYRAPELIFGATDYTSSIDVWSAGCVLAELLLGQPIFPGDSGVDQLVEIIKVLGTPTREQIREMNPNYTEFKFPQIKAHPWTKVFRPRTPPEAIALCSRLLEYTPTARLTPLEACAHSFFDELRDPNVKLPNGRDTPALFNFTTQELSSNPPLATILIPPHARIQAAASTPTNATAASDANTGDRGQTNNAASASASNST
Sequence of cMet (P08581 25-1390): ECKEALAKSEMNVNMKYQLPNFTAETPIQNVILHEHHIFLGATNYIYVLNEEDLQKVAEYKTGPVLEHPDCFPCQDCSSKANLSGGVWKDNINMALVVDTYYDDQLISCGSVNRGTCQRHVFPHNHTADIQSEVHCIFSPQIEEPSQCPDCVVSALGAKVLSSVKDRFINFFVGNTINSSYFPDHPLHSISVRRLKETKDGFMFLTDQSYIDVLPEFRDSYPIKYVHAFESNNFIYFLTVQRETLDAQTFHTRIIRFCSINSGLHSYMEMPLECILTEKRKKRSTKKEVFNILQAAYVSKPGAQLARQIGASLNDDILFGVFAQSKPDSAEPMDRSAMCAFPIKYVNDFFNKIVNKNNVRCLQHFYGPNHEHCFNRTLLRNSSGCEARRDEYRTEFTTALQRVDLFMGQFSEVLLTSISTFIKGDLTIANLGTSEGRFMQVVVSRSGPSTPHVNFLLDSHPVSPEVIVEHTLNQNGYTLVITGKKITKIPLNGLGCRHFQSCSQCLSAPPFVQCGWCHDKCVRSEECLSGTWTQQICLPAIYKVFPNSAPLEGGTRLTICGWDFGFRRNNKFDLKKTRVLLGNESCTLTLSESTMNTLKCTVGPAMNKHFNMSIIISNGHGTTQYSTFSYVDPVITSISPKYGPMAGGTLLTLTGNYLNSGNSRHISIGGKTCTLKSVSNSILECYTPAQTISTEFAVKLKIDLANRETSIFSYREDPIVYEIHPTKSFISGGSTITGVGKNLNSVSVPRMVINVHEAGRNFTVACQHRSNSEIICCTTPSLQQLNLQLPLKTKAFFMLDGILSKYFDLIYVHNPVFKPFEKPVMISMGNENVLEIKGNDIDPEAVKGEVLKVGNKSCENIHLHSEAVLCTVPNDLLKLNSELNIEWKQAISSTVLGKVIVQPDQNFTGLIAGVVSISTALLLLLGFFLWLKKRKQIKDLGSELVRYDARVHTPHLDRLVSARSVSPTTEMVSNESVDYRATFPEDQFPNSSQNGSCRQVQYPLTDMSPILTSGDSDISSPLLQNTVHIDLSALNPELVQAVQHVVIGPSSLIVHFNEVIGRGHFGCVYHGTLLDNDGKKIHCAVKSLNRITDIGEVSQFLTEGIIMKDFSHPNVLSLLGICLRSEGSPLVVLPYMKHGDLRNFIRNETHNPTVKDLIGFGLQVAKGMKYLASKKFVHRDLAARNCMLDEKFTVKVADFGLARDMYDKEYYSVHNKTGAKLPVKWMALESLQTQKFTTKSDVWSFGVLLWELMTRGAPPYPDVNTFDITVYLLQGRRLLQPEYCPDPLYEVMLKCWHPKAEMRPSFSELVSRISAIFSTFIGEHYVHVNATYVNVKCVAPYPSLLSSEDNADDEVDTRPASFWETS
Sequence of c-Kit (P10721 26-976): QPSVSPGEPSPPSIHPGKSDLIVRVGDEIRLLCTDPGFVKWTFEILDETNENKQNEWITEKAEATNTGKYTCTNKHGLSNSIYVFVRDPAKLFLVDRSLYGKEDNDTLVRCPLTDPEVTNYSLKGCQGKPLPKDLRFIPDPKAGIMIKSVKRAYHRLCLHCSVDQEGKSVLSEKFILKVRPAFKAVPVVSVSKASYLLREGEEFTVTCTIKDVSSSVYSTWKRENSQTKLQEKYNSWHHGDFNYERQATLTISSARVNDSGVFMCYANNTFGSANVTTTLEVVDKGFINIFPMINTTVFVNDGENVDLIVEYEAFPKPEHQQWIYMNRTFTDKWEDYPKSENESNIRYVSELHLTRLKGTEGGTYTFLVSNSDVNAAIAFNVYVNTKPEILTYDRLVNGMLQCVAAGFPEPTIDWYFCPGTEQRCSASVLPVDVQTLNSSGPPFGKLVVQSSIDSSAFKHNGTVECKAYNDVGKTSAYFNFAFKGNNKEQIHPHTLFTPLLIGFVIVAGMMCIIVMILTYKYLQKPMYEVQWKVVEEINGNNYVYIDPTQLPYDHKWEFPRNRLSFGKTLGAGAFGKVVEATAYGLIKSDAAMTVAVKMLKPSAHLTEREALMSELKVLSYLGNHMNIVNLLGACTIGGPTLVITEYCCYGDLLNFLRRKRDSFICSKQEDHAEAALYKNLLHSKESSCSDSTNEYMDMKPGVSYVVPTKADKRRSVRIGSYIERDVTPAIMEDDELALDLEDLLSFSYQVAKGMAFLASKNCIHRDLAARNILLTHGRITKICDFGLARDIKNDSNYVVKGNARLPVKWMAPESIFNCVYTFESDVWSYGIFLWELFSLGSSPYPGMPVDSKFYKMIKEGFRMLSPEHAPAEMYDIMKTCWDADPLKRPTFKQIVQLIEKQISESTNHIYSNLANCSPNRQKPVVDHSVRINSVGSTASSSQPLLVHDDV

Row | EGFR (% inhibition) (EGFR) | c-Src (% inhibition) (c-Src) | PDGFR (% inhibition) (PDGFR) | cMet (% inhibition) (cMet) | p56 Lck (% inhibition) (p56 Lck) | CDK1 (% inhibition) (CDK1) | c-Kit (% inhibition) (c-Kit) | Abl (% inhibition) (Abl) | RSK1 (% inhibition) (RSK1) | SMILES | GSK-3β (% inhibition) (GSK-3β) | inhibition of NFκB (in words, compared with Compound 30) [1] | EC50 [1] [nM] | HCMV replication (in words) (HCMV strain AD169) | TNF-α stimulated NFκB-dependent promoter activity ([1]; 1 μM final concentration, TNF-α stimulated) | NFκB-dependent promoter activity under non-stimulated conditions ([1]; non-stimulated conditions) | molecular weight of RNA polymerase II [2] | serine 2 phosphorylation of RNA polymerase II ([2]; anti-SER2 (H5)) | serine 5 phosphorylation of RNA polymerase II ([2]; anti-SER5 (H14)) | HBV replication (in words) (HBV)
1 | b (inhibition between 80 and 50%: b) | – | b (inhibition between 80 and 50%: b) | – | b (inhibition between 80 and 50%: b) | a (inhibition greater than 80%: a) | b (inhibition between 80 and 50%: b) | c (inhibition between 50 and 30%: c) | b (inhibition between 80 and 50%: b) | COc1ccccc1-c1cc(Nc2ccc(NC(=O)c3cn(C)cn3)cc2)ncn1 [Compound 70] | b (inhibition between 80 and 50%: b) | – | – | – | – | – | – | – | – | –
2 | a (inhibition greater than 80%: a) | – | b (inhibition between 80 and 50%: b) | c (inhibition between 50 and 30%: c) | b (inhibition between 80 and 50%: b) | a (inhibition greater than 80%: a) | b (inhibition between 80 and 50%: b) | b (inhibition between 80 and 50%: b) | b (inhibition between 80 and 50%: b) | COc1ccccc1-c1cc(Nc2ccc(NC(=O)C3CCCN(C)C3)cc2)ncn1 (centres unmarked) [Compound 87] | – | – | – | – | – | – | – | – | – | –
3 | b (inhibition between 80 and 50%: b) | b (inhibition between 80 and 50%: b) | c (inhibition between 50 and 30%: c) | – | b (inhibition between 80 and 50%: b) | a (inhibition greater than 80%: a) | – | – | – | NC(=O)c1ccc(Nc2cc(-c3ccccc3OCc3ccccc3)ncn2)cc1 [Compound 95] | a (inhibition greater than 80%: a) | – | – | – | – | – | – | – | – | –

Further lines, the molecule ahead of its results:

Row | SMILES | EGFR (% inhibition) (EGFR) | c-Src (% inhibition) (c-Src) | PDGFR (% inhibition) (PDGFR) | cMet (% inhibition) (cMet) | p56 Lck (% inhibition) (p56 Lck) | CDK1 (% inhibition) (CDK1) | c-Kit (% inhibition) (c-Kit) | Abl (% inhibition) (Abl) | RSK1 (% inhibition) (RSK1) | GSK-3β (% inhibition) (GSK-3β) | inhibition of NFκB (in words, compared with Compound 30) [1] | EC50 [1] [nM] | HCMV replication (in words) (HCMV strain AD169) | TNF-α stimulated NFκB-dependent promoter activity ([1]; 1 μM final concentration, TNF-α stimulated) | NFκB-dependent promoter activity under non-stimulated conditions ([1]; non-stimulated conditions) | molecular weight of RNA polymerase II [2] | serine 2 phosphorylation of RNA polymerase II ([2]; anti-SER2 (H5)) | serine 5 phosphorylation of RNA polymerase II ([2]; anti-SER5 (H14)) | HBV replication (in words) (HBV)
4 | COc1ccccc1-c1cc(Nc2ccc(C(=O)N[C@@H]3CCCC[C@H]3N)cc2)ncn1 (racemic) [Compound 83] | b (inhibition between 80 and 50%: b) | b (inhibition between 80 and 50%: b) | b (inhibition between 80 and 50%: b) | b (inhibition between 80 and 50%: b) | b (inhibition between 80 and 50%: b) | a (inhibition greater than 80%: a) | b (inhibition between 80 and 50%: b) | c (inhibition between 50 and 30%: c) | – | c (inhibition between 50 and 30%: c) | – | – | – | – | – | – | – | – | –
5 | Nc1ccc(C(=O)Nc2ccc(Nc3cc(-c4ccccc4OCc4ccccc4)ncn3)cc2)cc1 [Compound 4] | c (inhibition between 50 and 30%: c) | – | – | – | a (inhibition greater than 80%: a) | a (inhibition greater than 80%: a) | – | – | – | a (inhibition greater than 80%: a) | less effectively | ~2000 | showed inhibition | – | – | – | – | – | –
6 | COc1ccc(-c2cc(Nc3ccc(NC(=O)c4ccc(N)cc4)cc3)ncn2)cc1 [Compound 6] | – | – | c (inhibition between 50 and 30%: c) | – | c (inhibition between 50 and 30%: c) | a (inhibition greater than 80%: a) | b (inhibition between 80 and 50%: b) | – | – | b (inhibition between 80 and 50%: b) | – | – | showed inhibition | – | – | – | – | – | –
7 | COc1ccccc1-c1cc(Nc2ccc(NC(=O)[C@@H]3CCCCN3)cc2)ncn1 [Compound 30] | a (inhibition greater than 80%: a) | b (inhibition between 80 and 50%: b) | c (inhibition between 50 and 30%: c) | c (inhibition between 50 and 30%: c) | b (inhibition between 80 and 50%: b) | a (inhibition greater than 80%: a) | b (inhibition between 80 and 50%: b) | b (inhibition between 80 and 50%: b) | – | c (inhibition between 50 and 30%: c) | – | ~1000 | showed inhibition | able, to affect | no inhibition was observed | reduction | decreased | did not show any differences | inactive
8 | CN1CC[C@H](c2c(O)cc(O)c3c(=O)cc(-c4ccccc4Cl)oc23)[C@H](O)C1 [flavopiridol, reference compound] | – | – | – | – | – | – | – | – | – | – | – | – | – | – | – | – | – | – | inhibits replication
